Drawing on the NIST ThermoML archive (doi:10.1016/j.fluid.2018.04.021), this text covers Critical pressure and Critical temperature for six compounds.

The structures appear in SMILES notation. ± gives the expanded uncertainty stated by the source.

For this data set the following is noted: Liquid; flow method with low residence time.

In the case of `CCCCCCCC` [octane], the Critical pressure was 2496 ± 24 kPa and the Critical temperature was 568.9 ± 0.4 K.
`CCOC(=O)OCC` [diethyl carbonate]: the Critical pressure came to 3346 ± 30 kPa and the Critical temperature turned out to be 578.1 ± 0.4 K.
As to `C1CCCCC1` [cyclohexane], the Critical pressure worked out at 4074 ± 36 kPa and the Critical temperature came to 553.6 ± 0.4 K.
As to `CCCCCC` [hexane], the Critical pressure was determined as 3033 ± 27 kPa and the Critical temperature was 507.8 ± 0.4 K.
Take `CCO` [ethanol]: the Critical pressure came out at 6141 ± 51 kPa and the Critical temperature was 514 ± 0.4 K.
Consider `CCCCCCC` [heptane], for which the Critical pressure came out at 2736 ± 25 kPa and the Critical temperature is reported as 540.1 ± 0.4 K.
